Data published in US7642245B2, “Antibacterial compounds having a (pyrrole carboxamide)-(benzamide)-(imidazole carboxamide) motif” (Oscient Pharmaceuticals Corporation, priority 2002, dated 2010).

Assays:
S. aureus ATCC 13709 = assay: MIC, NCCLS broth microdilution; type: cell-based, Staphylococcus aureus; conditions: A = S. aureus ATCC 13709 (MSSA)
How it was run: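 Compounds were serially diluted in broth and tested against each strain according to NCCLS guidelines, with MIC taken as the endpoint. C. albicans was assayed per the Manual of Clinical Microbiology.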

S. aureus ATCC 27660 = assay: MIC, NCCLS broth microdilution; type: cell-based, Staphylococcus aureus; conditions: B = S. aureus ATCC 27660 (MRSA)
How it was run: (§1)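 Broth microdilution, NCCLS M7-A4/M11-A4/M27-T guidelines; read-out MIC. MRSA strain for S. aureus. Candida: Manual of Clinical Microbiology method.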

E. faecalis ATCC 29212 = assay: MIC, NCCLS broth microdilution; type: cell-based, Enterococcus faecalis; conditions: C = E. faecalis ATCC 29212
How it was run: as §1

B. cereus ATCC 11778 = assay: MIC, NCCLS broth microdilution; type: cell-based, Bacillus cereus; conditions: D = B. cereus ATCC 11778
How it was run: as §1

S. pneumoniae ATCC 49619 = assay: MIC, NCCLS broth microdilution; type: cell-based, Streptococcus pneumoniae; conditions: E = S. pneumoniae ATCC 49619
How it was run: as §1

C. albicans ATCC 38247 = assay: MIC, antifungal assay; type: cell-based, Candida albicans; conditions: F = C. albicans ATCC 38247
How it was run: as §1

E. coli ATCC 25922 = assay: MIC, NCCLS broth microdilution; type: cell-based, Escherichia coli; conditions: G = E. coli ATCC 25922
How it was run: as §1

[1] = test system: M. catarrhalis (ATCC 25238); assay: MIC, NCCLS broth microdilution; type: cell-based, Moraxella (now Branhamella) catarrhalis; conditions: H = M. catarrhalis (ATCC 25238)
How it was run: as §1

Compound | Minimum Inhibitory Concentration (MIC) (S. aureus ATCC 13709) | Minimum Inhibitory Concentration (MIC) (S. aureus ATCC 27660) | Minimum Inhibitory Concentration (MIC) (E. faecalis ATCC 29212) | Minimum Inhibitory Concentration (MIC) (B. cereus ATCC 11778) | Minimum Inhibitory Concentration (MIC) (S. pneumoniae ATCC 49619) | Minimum Inhibitory Concentration (MIC) (C. albicans ATCC 38247) | Minimum Inhibitory Concentration (MIC) (E. coli ATCC 25922) | Minimum Inhibitory Concentration (MIC) [1]
Cn1cc(NC(=O)c2cc3ccccc3cn2)cc1C(=O)Nc1ccc(C(=O)Nc2cn(C)c(C(=O)NCCN3CCN(CC#N)CC3)n2)cc1 [Compound A-58] | +++ (MIC ≦ 4 μg/mL) | +++ (MIC ≦ 4 μg/mL) | +++ (MIC ≦ 4 μg/mL) | +++ (MIC ≦ 4 μg/mL) | +++ (MIC ≦ 4 μg/mL) | >32 µg/mL | >32 µg/mL | +++ (MIC ≦ 4 μg/mL)
Cn1cc(NC(=O)c2cc3ccccc3cn2)cc1C(=O)Nc1ccc(C(=O)Nc2cn(C)c(C(=O)NCCN3CCC(OC(=O)CCN4CCOCC4)CC3)n2)cc1 [Compound A-59] | +++ (MIC ≦ 4 μg/mL) | +++ (MIC ≦ 4 μg/mL) | +++ (MIC ≦ 4 μg/mL) | +++ (MIC ≦ 4 μg/mL) | +++ (MIC ≦ 4 μg/mL) | >32 µg/mL | >32 µg/mL | +++ (MIC ≦ 4 μg/mL)
Cn1cc(NC(=O)c2cc3ccccc3cn2)cc1C(=O)Nc1ccc(C(=O)Nc2cn(C)c(C(=O)NCCN3CCC(OC(=O)CCN)CC3)n2)cc1 [Compound A-60] | +++ (MIC ≦ 4 μg/mL) | +++ (MIC ≦ 4 μg/mL) | +++ (MIC ≦ 4 μg/mL) | +++ (MIC ≦ 4 μg/mL) | +++ (MIC ≦ 4 μg/mL) | ++ (4 < MIC < 12 μg/mL) | >32 µg/mL | ++ (4 < MIC < 12 μg/mL)
Cn1cc(NC(=O)c2cc3ccccc3cn2)cc1C(=O)Nc1ccc(C(=O)Nc2cn(C)c(C(=O)NCCN3CCN(CCOC(=O)CNC(=O)OC(C)(C)C)CC3)n2)cc1 [Compound A-61] | +++ (MIC ≦ 4 μg/mL) | +++ (MIC ≦ 4 μg/mL) | +++ (MIC ≦ 4 μg/mL) | +++ (MIC ≦ 4 μg/mL) | +++ (MIC ≦ 4 μg/mL) | >32 µg/mL | >32 µg/mL | +++ (MIC ≦ 4 μg/mL)
Cn1cc(NC(=O)c2cc3ccccc3cn2)cc1C(=O)Nc1ccc(C(=O)Nc2cn(C)c(C(=O)NCCN3CCN(CCOC(=O)CN)CC3)n2)cc1 [Compound A-62] | +++ (MIC ≦ 4 μg/mL) | +++ (MIC ≦ 4 μg/mL) | +++ (MIC ≦ 4 μg/mL) | +++ (MIC ≦ 4 μg/mL) | +++ (MIC ≦ 4 μg/mL) | >32 µg/mL | >32 µg/mL | +++ (MIC ≦ 4 μg/mL)
CC(O)CN1CCN(CCNC(=O)c2nc(NC(=O)c3ccc(NC(=O)c4cc(NC(=O)c5cc6ccccc6cn5)cn4C)cc3)cn2C)CC1 (stereo not drawn) [Compound A-63] | +++ (MIC ≦ 4 μg/mL) | +++ (MIC ≦ 4 μg/mL) | +++ (MIC ≦ 4 μg/mL) | +++ (MIC ≦ 4 μg/mL) | +++ (MIC ≦ 4 μg/mL) | >32 µg/mL | +++ (MIC ≦ 4 μg/mL) | +++ (MIC ≦ 4 μg/mL)

Other lines, results leading:

Minimum Inhibitory Concentration (MIC) (S. aureus ATCC 13709) | Minimum Inhibitory Concentration (MIC) (S. aureus ATCC 27660) | Minimum Inhibitory Concentration (MIC) (E. faecalis ATCC 29212) | Minimum Inhibitory Concentration (MIC) (B. cereus ATCC 11778) | Minimum Inhibitory Concentration (MIC) (S. pneumoniae ATCC 49619) | Minimum Inhibitory Concentration (MIC) (C. albicans ATCC 38247) | Minimum Inhibitory Concentration (MIC) (E. coli ATCC 25922) | Minimum Inhibitory Concentration (MIC) [1] | Compound
+++ (MIC ≦ 4 μg/mL) | +++ (MIC ≦ 4 μg/mL) | +++ (MIC ≦ 4 μg/mL) | +++ (MIC ≦ 4 μg/mL) | +++ (MIC ≦ 4 μg/mL) | >32 µg/mL | >32 µg/mL | ++ (4 < MIC < 12 μg/mL) | Cn1cc(NC(=O)c2cc3ccccc3cn2)cc1C(=O)Nc1ccc(C(=O)Nc2cn(C)c(C(=O)NCCN3CCN(C(=O)CNC(=O)OC(C)(C)C)CC3)n2)cc1 [Compound A-64]
+++ (MIC ≦ 4 μg/mL) | +++ (MIC ≦ 4 μg/mL) | +++ (MIC ≦ 4 μg/mL) | +++ (MIC ≦ 4 μg/mL) | +++ (MIC ≦ 4 μg/mL) | ++ (4 < MIC < 12 μg/mL) | >32 µg/mL | +++ (MIC ≦ 4 μg/mL) | Cn1cc(NC(=O)c2cc3ccccc3cn2)cc1C(=O)Nc1ccc(C(=O)Nc2cn(C)c(C(=O)NCCN3CCN(C(=O)CN)CC3)n2)cc1 [Compound A-65]
+++ (MIC ≦ 4 μg/mL) | +++ (MIC ≦ 4 μg/mL) | +++ (MIC ≦ 4 μg/mL) | +++ (MIC ≦ 4 μg/mL) | +++ (MIC ≦ 4 μg/mL) | >32 µg/mL | >32 µg/mL | +++ (MIC ≦ 4 μg/mL) | Cn1cc(NC(=O)c2cc3ccccc3cn2)cc1C(=O)Nc1ccc(C(=O)Nc2cn(C)c(C(=O)NCCN3CCC(OC(=O)CNC(=O)OC(C)(C)C)CC3)n2)cc1 [Compound A-66]
+++ (MIC ≦ 4 μg/mL) | +++ (MIC ≦ 4 μg/mL) | +++ (MIC ≦ 4 μg/mL) | +++ (MIC ≦ 4 μg/mL) | +++ (MIC ≦ 4 μg/mL) | ++ (4 < MIC < 12 μg/mL) | + (12 ≦ MIC ≦ 32 μg/mL) | +++ (MIC ≦ 4 μg/mL) | Cn1cc(NC(=O)c2cc3ccccc3cn2)cc1C(=O)Nc1ccc(C(=O)Nc2cn(C)c(C(=O)NCCN3CCC(OC(=O)CN)CC3)n2)cc1 [Compound A-67]
+++ (MIC ≦ 4 μg/mL) | +++ (MIC ≦ 4 μg/mL) | +++ (MIC ≦ 4 μg/mL) | +++ (MIC ≦ 4 μg/mL) | + (12 ≦ MIC ≦ 32 μg/mL) | >32 µg/mL | >32 µg/mL | >32 µg/mL | Cn1cc(NC(=O)c2cc3ccccc3cn2)cc1C(=O)Nc1ccc(C(=O)Nc2cn(C)c(C(=O)NCCN3CCC(OC(=O)CNS(=O)(=O)O)CC3)n2)cc1 [Compound A-68]
+++ (MIC ≦ 4 μg/mL) | +++ (MIC ≦ 4 μg/mL) | +++ (MIC ≦ 4 μg/mL) | +++ (MIC ≦ 4 μg/mL) | +++ (MIC ≦ 4 μg/mL) | >32 µg/mL | +++ (MIC ≦ 4 μg/mL) | +++ (MIC ≦ 4 μg/mL) | Cn1cc(NC(=O)c2cc3ccccc3cn2)cc1C(=O)Nc1ccc(C(=O)Nc2cn(C)c(C(=O)NCCN3CCC(O)C3)n2)cc1 (stereo not drawn) [Compound A-70]
